Like-named read-outs stand apart in the source and are kept apart here.
How the values were obtained:
[1] = tested on: human breast cancer cell line (MDA-MB-231); assay: MTT cytotoxic assay, MDA-MB-231; type: cell-based; conditions: read-out: IC50 MDA-MB-231
Description: (§1) The in vitro antiproliferative activity of DAA derivatives (1–5, 6a–k, 7a–k) were evaluated by MTT assay against human hepatocarcinoma cell line (SMMC-7721), human breast cancer cell line (MDA-MB-231), human cervical carcinoma cell line (HeLa), mouse colon cancer cell line (CT-26) and human normal hepatocyte cell line (QSG-7701). Nocodazole was co-assayed as the positive control and DMEM culture medium containing 0.1% DMSO was used as negative control. The results of the tested compounds expressed as IC50 values (concentration required to inhibit tumor cell proliferation by 50%) were presented in Table 1.
(§2) The human hepatocarcinoma cell line (SMMC-7721), human breast cancer cell line (MDA-MB-231), human cervical carcinoma cell line (HeLa), mouse colon cancer cell line (CT-26) and human normal hepatocyte cells (QSG-7701) used in this study were all obtained from Keygene Biotech., China. These cell lines were maintained in DMEM medium supplemented with 10% heat-inactivated fetal bovine serum in a humidified atmosphere of 5% CO2 at 37 °C.
(§3) The in vitro cytotoxic activities of the benzimidazole derivatives of dehydroabietic acid were evaluated against tested cell lines via the MTT colorimetric method. Briefly, different tumor cells were grown in DMEM medium supplemented with 10% fetal bovine serum, penicillin (100 U mL^−1), and streptomycin (50 μg mL^−1). Cells were harvested at log phase of growth and seeded in 96-well plates (100 μL per well at a density of 2 × 10^5 cells mL^−1). After 24 h incubation at 37 °C and 5% CO2 to allow cell attachment, cultures were exposed to various concentrations of the isolated compounds for 48 h. Finally, MTT solution (2.5 mg mL^−1 in PBS) was added (40 μL per well). Plates were further incubated for 4 h at 37 °C, and the formazan crystals formed were dissolved by adding 150 μL per well of DMSO. Absorption at 570 nm was measured with an ELISA plate reader. The results were expressed as IC50 values with standard deviations, which was defined as the concentration at which 50% survival of cells was discerned. Nocodazole was co-assayed as positive control.

[2] = tested on: human hepatocarcinoma cell line (SMMC-7721); assay: MTT cytotoxic assay, SMMC-7721; type: cell-based; conditions: Homo sapiens, SMMC-7721, 48 h, read-out: IC50 SMMC-7721
Description: as §1, §2, §3

[3] = tested on: mouse colon cancer cell line (CT-26); assay: MTT cytotoxic assay, CT-26; type: cell-based; conditions: read-out: IC50 CT-26
Description: as §1, §2, §3

[4] = tested on: human cervical carcinoma cell line (HeLa); assay: MTT cytotoxic assay, HeLa; type: cell-based; conditions: read-out: IC50 HeLa
Description: as §1, §2, §3

[5] = tested on: human normal hepatocyte cell line (QSG-7701); assay: MTT cytotoxic assay, QSG-7701; type: cell-based; conditions: QSG7701, 48 h exposure
Description: as §1, §2, §3

[6] = Mus musculus, CT26, 48 h, MTT, 48 h exposure

Row | Compound | IC50 ([1]; MDA-MB-231, MTT, 48 h exposure) [µM] | IC50 ([2]; MTT, 48 h exposure) [µM] | IC50 [3, 6] [µM] | IC50 ([4]; MTT, 48 h exposure) [µM] | melting point [°C] | IC50 [5] [µM] | IC50 ([1]; MDA-MB-231, 48 h) [µM] | IC50 [2] [µM] | IC50 ([3]; Mus musculus, CT26, 48 h) [µM] | IC50 ([4]; 48 h) [µM] | IC50 ([3]; MTT, 48 h exposure) [µM]
1 | COC(=O)[C@]1(C)CCC[C@]2(C)c3cc(Br)c4nc(-c5ccccc5F)[nH]c4c3CCC12 (stereo partly drawn) [Compound 6e, Methyl 2′-(2-fluorophenyl)-12-bromo-13,14-imidazolyl-deisopropyl-dehydroabietate] | > 50 | 12.3 ± 2.46 | > 50 | > 50 | 138 to 139 | – | – | – | – | – | –
2 | COC(=O)[C@]1(C)CCC[C@]2(C)c3cc(Br)c4nc(-c5ccc(OC)cc5)[nH]c4c3CCC12 (stereo partly drawn) [Compound 6i, Methyl 2′-(4-methoxyphenyl)-12-bromo-13,14-imidazolyl-deisopropyl-dehydroabietate] | > 50 | > 50 | 21.2 ± 2.23 | > 50 | 140 to 142 | – | – | – | – | – | –
3 | CC(C)c1ccc2c(c1)CC[C@H]1[C@](C)(C(=O)O)CCC[C@]21C [Compound 1, Dehydroabietic acid] | > 50 | > 50 | > 50 | > 50 | – | – | – | – | – | – | –
4 | COC(=O)[C@]1(C)CCC[C@]2(C)c3cc(-c4cc(OC)c(OC)c(OC)c4)c4nc(-c5ccccc5Cl)[nH]c4c3CCC12 (stereo partly drawn) [Compound 7g, Methyl 2′-(2-chlorophenyl)-12-(3,4,5-trimethoxyphenyl)-13,14-imidazolyl-deisopropyl-dehydroabietate] | 15.7 ± 0.87 | > 50 | 13.4 ± 2.35 | > 50 | 157 to 159 | – | – | – | – | – | –
5 | COC(=O)[C@]1(C)CCC[C@]2(C)c3cc(-c4cc(OC)c(OC)c(OC)c4)c4nc(-c5c[nH]c6ccccc56)[nH]c4c3CCC12 (stereo partly drawn) [Compound 7k, Methyl 2′-(1H-indol-3-yl)-12-(3,4,5-trimethoxyphenyl)-13,14-imidazolyl-deisopropyl-dehydroabietate] | 0.21 ± 0.02 | – | – | 5.86 ± 0.63 | 199 to 201 | 11.8 ± 2.12 | – | – | – | – | –
6 | COC(=O)[C@]1(C)CCC[C@]2(C)c3cc(Br)c([N+](=O)[O-])c([N+](=O)[O-])c3CCC12 (stereo partly drawn) [Compound 4, methyl 12-bromo-13,14-dinitro-deisopropyldehydroabietate] | – | – | – | – | – | – | 38.8 ± 2.15 | 31.8 ± 3.22 | 35.1 ± 3.87 | > 50 | –
7 | COC(=O)Nc1nc2ccc(C(=O)c3cccs3)cc2[nH]1 [Nocodazole, nocodazole, reference compound] | 0.76 ± 0.06 | 0.92 ± 0.07 | 1.37 ± 0.11 | 0.87 ± 0.05 | – | 13.8 ± 1.08 | – | – | – | – | –
8 | COC(=O)[C@]1(C)CCC[C@]2(C)c3cc(-c4cc(OC)c(OC)c(OC)c4)c4nc(-c5ccc(OC)cc5)[nH]c4c3CCC12 (stereo partly drawn) [Compound 7i, Methyl 2′-(4-methoxyphenyl)-12-(3,4,5-trimethoxyphenyl)-13,14-imidazolyl-deisopropyl-dehydroabietate] | > 50 | > 50 | 23.5 ± 2.38 | > 50 | 153 to 155 | – | – | – | – | – | –
9 | COC(=O)[C@]1(C)CCC[C@]2(C)c3cc(-c4cc(OC)c(OC)c(OC)c4)c4nc(-c5ccccc5F)[nH]c4c3CCC12 (stereo partly drawn) [Compound 7e, Methyl 2′-(2-fluorophenyl)-12-(3,4,5-trimethoxyphenyl)-13,14-imidazolyl-deisopropyl-dehydroabietate] | 18.2 ± 1.32 | > 50 | 10.4 ± 1.91 | 18.3 ± 2.98 | 155 to 157 | – | – | – | – | – | –
10 | COC(=O)[C@]1(C)CCC[C@]2(C)c3cc(Br)c4nc(-c5c[nH]c6ccccc56)[nH]c4c3CCC12 (stereo partly drawn) [Compound 6k, Methyl 2′-(1H-indol-3-yl)-12-bromo-13,14-imidazolyl-deisopropyl-dehydroabietate] | 0.56 ± 0.13 | – | – | 0.98 ± 0.11 | 139 to 140 | 8.43 ± 1.06 | – | – | – | – | –
11 | COC(=O)[C@]1(C)CCC[C@]2(C)c3cc(Br)c4nc(-c5ccc(F)cc5)[nH]c4c3CCC12 (stereo partly drawn) [Compound 6c, Methyl 2′-(4-fluorophenyl)-12-bromo-13,14-imidazolyl-deisopropyl-dehydroabietate] | 18.2 ± 1.2 | – | < 5 | 8.01 ± 0.76 | 149 to 151 | > 50 | – | – | – | – | 2.82 ± 0.97
12 | COC(=O)[C@]1(C)CCC[C@]2(C)c3cc(-c4cc(OC)c(OC)c(OC)c4)c4nc(-c5ccc(C)cc5)[nH]c4c3CCC12 (stereo partly drawn) [Compound 7b, Methyl 2′-(p-tolyl)-12-(3,4,5-trimethoxyphenyl)-13,14-imidazolyl-deisopropyl-dehydroabietate] | > 50 | > 50 | 15.6 ± 1.57 | > 50 | 133 to 135 | – | – | – | – | – | –
13 | COC(=O)[C@]1(C)CCC[C@]2(C)c3cc(Br)c4nc(-c5ccc(Br)cc5)[nH]c4c3CCC12 (stereo partly drawn) [Compound 6h, Methyl 2′-(4-bromophenyl)-12-bromo-13,14-imidazolyl-deisopropyl-dehydroabietate] | 35.3 ± 1.77 | 16.6 ± 1.4 | > 50 | > 50 | 141 to 142 | – | – | – | – | – | –
14 | COC(=O)[C@]1(C)CCC[C@]2(C)c3cc(Br)c4nc(-c5ccccc5Cl)[nH]c4c3CCC12 (stereo partly drawn) [Compound 6g, Methyl 2′-(2-chlorophenyl)-12-bromo-13,14-imidazolyl-deisopropyl-dehydroabietate] | 19.2 ± 0.93 | 40.8 ± 3.32 | > 50 | > 50 | 142 to 143 | – | – | – | – | – | –
15 | COC(=O)[C@]1(C)CCC[C@]2(C)c3cc(Br)c4nc(-c5ccc(C)cc5)[nH]c4c3CCC12 (stereo partly drawn) [Compound 6b, Methyl 2′-(p-tolyl)-12-bromo-13,14-imidazolyl-deisopropyl-dehydroabietate] | > 50 | > 50 | 25.3 ± 4.96 | > 50 | 143 to 145 | – | – | – | – | – | –
16 | COC(=O)[C@]1(C)CCC[C@]2(C)c3cc(Br)c(C(C)C)cc3CCC12 (stereo partly drawn) [Compound 3] | > 50 | > 50 | > 50 | > 50 | – | – | – | – | – | – | –
17 | COC(=O)[C@]1(C)CCC[C@]2(C)c3ccc(C(C)C)cc3CCC12 (stereo partly drawn) [Compound 2] | > 50 | > 50 | > 50 | > 50 | – | – | – | – | – | – | –
18 | COC(=O)[C@]1(C)CCC[C@]2(C)c3cc(Br)c(N)c(N)c3CCC12 (stereo partly drawn) [Compound 5] | > 50 | > 50 | 38.5 ± 3.79 | 43.4 ± 2.81 | – | – | – | – | – | – | –
19 | COC(=O)[C@]1(C)CCC[C@]2(C)c3cc(-c4cc(OC)c(OC)c(OC)c4)c4nc(-c5ccc6[nH]ccc6c5)[nH]c4c3CCC12 (stereo partly drawn) [Compound 7j, Methyl 2′-(1H-indol-5-yl)-12-(3,4,5-trimethoxyphenyl)-13,14-imidazolyl-deisopropyl-dehydroabietate] | 0.83 ± 0.2 | – | – | 3.75 ± 0.78 | 189 to 191 | 12.8 ± 1.27 | – | – | – | – | –
20 | COC(=O)[C@]1(C)CCC[C@]2(C)c3cc(Br)c4nc(-c5ccc(Cl)cc5)[nH]c4c3CCC12 (stereo partly drawn) [Compound 6f, Methyl 2′-(4-chlorophenyl)-12-bromo-13,14-imidazolyl-deisopropyl-dehydroabietate] | 33.7 ± 4.7 | 16.5 ± 1.87 | > 50 | > 50 | 139 to 141 | – | – | – | – | – | –

Source: article PMC9080489, “Synthesis and biological evaluation of 2-aryl-benzimidazole derivatives of dehydroabietic acid as novel tubulin polymerization inhibitors” (RSC Advances, 2018)
